Test results reported in patent publication US10772863B2, “Methods of inducing metabolic maturation of human pluripotent stem cells— derived hepatocytes” (priority 2016, dated 2020).
Values joined by “and” are separate entries in the source; they are usually repeats but may differ in a detail not shown here. Equal entries are not always repeated. “Also recorded” adds a separate entry of the source. Where two headings read alike, the source gives them in different places.

What was measured:
PXR = PXR (Homo sapiens, UniProt O75469); format: cell-based
Method: (§1) Cultured cells were fixed using 4% paraformaldehyde for 15 minutes at room temperature. […] Following washes, cells were incubated with secondary antibodies for 1 hour at room temperature in blocking buffer (Table 10, hereinbelow). Hoechst staining was performed using bisBenzimide H33342 for 2 minutes. Imaging was performed on a Zeiss LSM 700 confocal microscope.

hESC-derived hepatocytes [1] = format: cell-based, human; settings: LA replaced with 9CLA, with 100 μM OA
[2] = test system: PXR and its CYP2C9 and CYP3A4 target genes
hESC-derived hepatocytes [3] = test: Albumin, AFP and ApoB100 production (ELISA); format: cell-based, human; settings: cells treated with OA and LA; 24-hours treatment with GW9662
Method: Culture media samples were collected daily and stored at −80° C. Albumin and AFP concentrations were analyzed using Human Albumin ELISA quantitation set (Bethyl laboratories, Montgomery, Tex.) and Human AFP (alpha-fetoprotein) Quantikine ELISA kit (R&D Systems, Minneapolis, Minn.), according to manufacturer directions. […] Data was normalized to total cellular protein utilizing the Bradford assay.

hESC-derived hepatocytes [4] = test: qRT-PCR of nuclear receptors, lipid metabolism, albumin and mitochondrial genes after fatty acid treatment; format: cell-based, human
hESC-derived hepatocytes [5] = test: HSP60 immunofluorescence and CellProfiler analysis of mitochondrial network; format: cell-based, human
Method: as §1

hESC-derived hepatocytes [6] = format: cell-based, human; settings: 50 μM LCA
[7] = test system: CYP450 (CYP1A, CYP3A4, CYP2C9); settings: human, 72 h
Method: CYP1A activity was evaluated utilizing EROD (ethoxyresorufin-o-deethylase) as previously described (Behnia, 2000). […] Briefly, cultures were incubated with 100 μM BFC (7-benzyloxy-4-trifluoromethylcoumarinat), or 10 μM MFC (7-methoxy-4-trifluoromethylcoumarin) for 1 hour at 37° C. Supernatant samples were collected every 30 minutes for 2.5 hours. The reactions were stopped by collection of the incubation medium. Metabolite conjugates formed via phase II activity were hydrolyzed by incubation of medium samples with β-glucuronidase/arylsulfatase for 2 hours at 37° C. Samples were diluted 1:1 in quenching solution and HFC (7-hydroxy-4-trifluoromethylcoumarin), the respective fluorescent metabolite formation, was measured at the appropriate wavelengths (410/510) and normalized to total protein determined by Bradford.
CYP450 activity was quantified as described above at the end of the stimulation period.

[8] = test system: LCA- and MK4-treated hESC-derived hepatocytes
Method: Cultured cells were exposed to different concentrations of compounds dissolved in culture medium for 24 hours at 37° C. Cell viability was determined utilizing LIVE/DEAD Cytotoxicity kit (Molecular Probes, Eugene, Oreg.) according to manufacturer instructions. In brief, cultures were incubated with 2 μM Calcein AM and 3 μM ethidium homodimer-1 for 25 minutes. Hydrolysis by functional intracellular esterases causes live cells to fluoresce green, while the punctured membranes of dead cells permit ethidium homodimer-1 to bind DNA and fluoresce red. Cellular viability was calculated by live to dead ratio and normalized to negative control. TC50 values were quantified using GraphPad Prism software (La Jolla, Calif.).
Differentiation was adapted to 96-well plates (General Materials and Experimental Methods above). Cells were exposed to increasing concentrations of compounds on day 16, and viability was quantified using fluorescence Live/Dead staining after 24 hours of exposure (FIG. 4D).

hESC-derived hepatocytes [9] = settings: human, 24 h
Method: Quantification of intracellular lipids was performed using LipidTOX™ Green Neutral Lipid Stain (Molecular Probes). […] Staining intensity was normalized to negative control. […] Incubation media was removed and cultures washed with ice-cold PBS containing calcium and magnesium. The number of green CDF particles was normalized to the number of Hoechst nuclei as an indicator of functional bile canaliculi. Particle and nuclei counting was performed utilizing the ImageJ particle analyzer.

hESC-derived hepatocytes [10] = test system: hESC-derived hepatocytes
Method: Toxicological endpoints were evaluated for nine hepatotoxic compounds at TC20 values identified above. Quantitation of apoptotic cells was performed utilizing DeadEnd™ fluorometric TUNEL System (Promega, Madison, Wis.) according to manufacturer instructions. […] Cell were permeabilized and exposed to fluorescein-12-dUTP and terminal deoxynucleotidyl transferase (TdT), dying apoptotic nuclei green. The reaction was subsequently stopped and the cells counterstained for DAPI. A percent apoptotic nucleus was calculated by dividing the number of TUNEL to DAPI positive nuclei.

PXR, sequence (O75469 whole entry): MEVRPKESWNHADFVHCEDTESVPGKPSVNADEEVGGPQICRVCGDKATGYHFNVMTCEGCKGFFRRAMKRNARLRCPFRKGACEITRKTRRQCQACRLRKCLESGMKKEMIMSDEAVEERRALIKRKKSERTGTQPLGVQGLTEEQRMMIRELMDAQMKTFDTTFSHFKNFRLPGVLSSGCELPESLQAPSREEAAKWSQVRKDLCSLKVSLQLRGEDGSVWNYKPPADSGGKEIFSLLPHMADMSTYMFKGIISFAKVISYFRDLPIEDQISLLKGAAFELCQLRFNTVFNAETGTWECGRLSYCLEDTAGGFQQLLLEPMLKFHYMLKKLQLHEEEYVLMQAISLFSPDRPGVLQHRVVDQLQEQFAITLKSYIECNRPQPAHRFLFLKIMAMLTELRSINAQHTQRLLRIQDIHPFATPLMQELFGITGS

## CCCCCC/C=C/C=C\CCCCCCCC(=O)O [9CLA, cis-9,trans-11-octadecadienoic acid]
PXR; 100 μM each, 9CLA replaces LA, with OA
  increase in PXR nuclear localization compared to untreated cells: 50%
PXR; with OA
  additional increase in PXR nuclear localization when LA is replaced with 9CLA: 30% and 40%
hESC-derived hepatocytes [1]
  mitochondrial respiration relative to primary human hepatocytes: 60%
[2]; hepatocytes
  CYP3A4 and CYP2C9 gene expression: increased significantly

## C[S+](C)[O-] [DMSO, Dimethyl sulfoxide]
[2]; human, hepatocytes, 2 %
  CYP450 gene expression: increased expression of all CYP450 enzymes measured
  increase in expression of PXR and most CYP450 enzymes checked: 2-6 fold

## O=C(Nc1ccccc1)c1cc([N+](=O)[O-])ccc1Cl [GW9662]
PXR; fatty acid treated cells
  effect on PXR nuclear localization: down-regulated; also recorded: significant decrease
hESC-derived hepatocytes [3]
  effect on albumin secretion / albumin gene expression and production: significant decrease; also recorded: blocked
hESC-derived hepatocytes [4]; 24-hours treatment, OA and LA treated cells
  effect on expression of genes involved in lipid metabolism: inhibited
hESC-derived hepatocytes [4]; fatty acid treated cells
  PGC1, MFN2 and FIS1 gene expression: decrease
hESC-derived hepatocytes [5]
  effect on fatty acid induced elongation and narrowing of mitochondria: reversed the effect
[2]; fatty acid treated cells
  CYP3A4 and CYP2C9 gene expression: down-regulated

## C[C@H](CCC(=O)O)[C@H]1CC[C@H]2[C@@H]3CC[C@@H]4C[C@H](O)CC[C@]4(C)[C@H]3CC[C@]12C [LCA, lithocholic acid]
hESC-derived hepatocytes [6]
  toxicity to differentiating cells: mild toxicity

## CC(C)=CCC/C(C)=C/CC/C(C)=C/CC/C(C)=C/CC1=C(C)C(=O)c2ccccc2C1=O [MK4, menaquinone-4]
[2]; 10 μM, final maturation step
  PXR expression induction: 1.9 fold

## COc1ccc2[nH]c([S+]([O-])Cc3ncc(C)c(OC)c3C)nc2c1 (centres unmarked) [Omeprazole, omeprazole]
[7]
  induction of BFC metabolism: 3 fold
[7]; 50 μM
  induction of EROD metabolism: 9 fold
[7]; hepatocytes, 50 μM
  induction of CYP450 activity: preferentially induced CYP1A

## CC(=O)Oc1ccccc1C(=O)O [acetylsalicylic acid]
[8]; human, 24 h
  TC20 concentration used for endpoint assays: 2000 µM
hESC-derived hepatocytes [9]
  increase in intracellular lipids compared to control: 25-26 fold

## CN(C)CCCN1c2ccccc2Sc2ccc(Cl)cc21 [chlorpromazine]
[8]; human, 24 h
  TC20 concentration used for endpoint assays: 45 µM
hESC-derived hepatocytes [9]
  decrease in number of CDF-positive bile canaliculi compared to control: 13-30 fold
  loss of epithelial polarization: 14 fold

## O=C(O)Cc1ccccc1Nc1c(Cl)cccc1Cl [diclofenac]
[8]; human
  TC20 concentration used for endpoint assays: 300 µM
hESC-derived hepatocytes [10]
  DNA fragmentation compared to control: significant increase
hESC-derived hepatocytes [10]; human, 24 h
  increase in percent of apoptotic nuclei compared to control: 3-4 fold

## OC[C@@H](O)[C@@H](O)[C@H](O)[C@H](O)CO [mannitol]
[8]
  toxicity: no adverse effects

## COc1ccc2[nH]cc(CCNC(C)=O)c2c1 [melatonin]
[8]
  toxicity: clear toxicity
[8]; human, 24 h
  TC50: 700 ± 200 µM
hESC-derived hepatocytes [9]
  increase in intracellular lipids compared to control: 30 fold
  intracellular lipid accumulation: significant (P<0.006) increase
hESC-derived hepatocytes [10]
  effect on cell viability: not affecting

## CC1CCC(C(C)C)C(O)C1 (centres unmarked) [menthol]
[8]
  toxicity: no adverse effects

## Cc1c(C)c2c(c(C)c1O)CCC(C)(COc1ccc(CC3SC(=O)NC3=O)cc1)O2 (centres unmarked) [troglitazone]
[8]; human, 24 h
  TC20 concentration used for endpoint assays: 80 µM
hESC-derived hepatocytes [9]
  decrease in number of CDF-positive bile canaliculi compared to control: 13-30 fold
  loss of epithelial polarization: 14 fold

## CCCC(CCC)C(=O)O [valproic acid]
hESC-derived hepatocytes [9]
  increase in intracellular lipids compared to control: 25-26 fold

## aflatoxin B1
[8]
  TC20 concentration used for endpoint assays: 2 µM
hESC-derived hepatocytes [10]
  DNA fragmentation compared to control: significant increase
